Results taken from patent EP0543555A1, “Phosphorylated flavanoids in the treatment of viral diseases” (MERRELL DOW PHARMACEUTICALS INC., priority 1991, dated 1993).
“And” between values parts separate entries of the source, which are not always exact repeats. Identical values can stand only once. Like-named read-outs stand apart in the source and are kept apart here.

Tests used:
HIV-1 = settings: for Mean Syncytial Counts Day 3 % / Mean Syncytial Counts Day 4 %: % of virus control; for Mean Syncytial Counts Day 4 %: 5760 min
Method: JM cells were infected with HIV-1 for 2 hours at room temperature. The cells were then washed and distributed into duplicate wells containing different concentrations of the test compound and incubated at 37°C. On days 3 and 4 the cells were observed and the syncytia counted and on day 4 the supernatant fluid was also harvested for detection of p24 viral core antigen using the Abbott EIA.

[1] = tested on: Herpes type 2 strain HG52; test: Herpes type 2 plaque reduction assay (Vero cells); format: cell-based; settings: for %: % of virus control
Source text: Cell Line: Vero Virus: Herpes type 2 strain HG52

CMV = test: Anti-CMV plaque reduction assay (AD169 strain, MRC 5 cell line); format: cell-based, cytomegalovirus (CMV); settings: for %: % of virus control
Method: Experiments were carried out whereby phosphorylated hesperidin was present at the following times of the virus (AD169 strain, MRC 5 cell line) growth cycle. • 1. During adsorption and after • 2. During adsorption, then not • 3. Only added after adsorption A virus control with no drug was present on each plate.

[2] = First trial, during adsorption and incubation, 10 µg/ml
[3] = First trial, during adsorption and incubation, 50 µg/ml
[4] = First trial, during adsorption and incubation, 100 µg/ml
[5] = First trial, during adsorption, 10 µg/ml
[6] = First trial, during adsorption, 50 µg/ml
[7] = First trial, during adsorption, 100 µg/ml
[8] = Second trial, during adsorption and incubation, 125 µg/ml
[9] = Second trial, during adsorption and incubation, 250 µg/ml
[10] = Second trial, during adsorption and incubation, 500 µg/ml
[11] = Second trial, during adsorption, 500 µg/ml
[12] = Second trial, incubation only, 125 µg/ml
[13] = Second trial, incubation only, 250 µg/ml
[14] = Second trial, incubation only, 500 µg/ml
[15] = First trial, added before and after adsorption, 31 µg/ml
[16] = Second trial, during and after adsorption, 31 µg/ml
[17] = Second trial, during and after adsorption, 62 µg/ml
[18] = Third trial, after adsorption only, 3.75 µg/ml
[19] = Third trial, after adsorption only, 7.5 µg/ml
[20] = Third trial, after adsorption only, 15 µg/ml
[21] = Third trial, after adsorption only, 31µg/ml
[22] = Third trial, after adsorption only, 62 µg/ml
[23] = Third trial, during adsorption only, 3.75 µg/ml
[24] = Third trial, during adsorption only, 7.5 µg/ml
[25] = Third trial, during adsorption only, 15 µg/ml
[26] = Third trial, during adsorption only, 31µg/ml
[27] = Third trial, during and after adsorption, 3.75 µg/ml
[28] = Third trial, during and after adsorption, 7.5 µg/ml
[29] = Third trial, during and after adsorption, 15 µg/ml
[30] = Third trial, during and after adsorption, 31µg/ml
[31] = Third trial, during and after adsorption, 62 µg/ml

## Phosphorylated Hesperidin
HIV-1; Conc 0.1 µg/ml, 4320 min
  Mean Syncytial Counts Day 3 %: 100%
HIV-1; Conc 0.1 µg/ml
  Mean Syncytial Counts Day 4 %: 100%
HIV-1; Conc 0.3 µg/ml, 4320 min
  Mean Syncytial Counts Day 3 %: 100%
HIV-1; Conc 0.3 µg/ml
  Mean Syncytial Counts Day 4 %: 100%
HIV-1; Conc 1 µg/ml, 4320 min
  Mean Syncytial Counts Day 3 %: 100%
HIV-1; Conc 1 µg/ml
  Mean Syncytial Counts Day 4 %: 100%
HIV-1; Conc 3 µg/ml
  Mean Syncytial Counts Day 3: As VC
  Mean Syncytial Counts Day 3 %: 100%
  Mean Syncytial Counts Day 4 %: 100%
HIV-1; Conc 10 µg/ml
  Mean Syncytial Counts Day 3: 51
  Mean Syncytial Counts Day 4: As VC
  Mean Syncytial Counts Day 4 %: 100%
HIV-1; Conc 10 µg/ml, 4320 min
  Mean Syncytial Counts Day 3 %: 89%
HIV-1; Conc 30 µg/ml
  Mean Syncytial Counts Day 3: 9
  Mean Syncytial Counts Day 4: 45
  Mean Syncytial Counts Day 4 %: 48%
HIV-1; Conc 30 µg/ml, 4320 min
  Mean Syncytial Counts Day 3 %: 16%
HIV-1; Conc 100 µg/ml
  Mean Syncytial Counts Day 3: 0
  Mean Syncytial Counts Day 4: 5
  Mean Syncytial Counts Day 4 %: 5%
HIV-1; Conc 100 µg/ml, 4320 min
  Mean Syncytial Counts Day 3 %: 0%
[1]; [2]
  No. of Plaques: 253 and 243
  No. of Plaques Average: 248
  %: 100%
[1]; [3]
  No. of Plaques: 112 and 132
  No. of Plaques Average: 122
  %: 54%
[1]; [4]
  No. of Plaques: 95 and 62
  No. of Plaques Average: 78.5
  %: 35%
[1]; [5]
  No. of Plaques: 211 and 231
  No. of Plaques Average: 221
  %: 98%
[1]; [6]
  No. of Plaques: 154 and 146
  No. of Plaques Average: 150
  %: 66%
[1]; [7]
  No. of Plaques: 187 and 144
  No. of Plaques Average: 166
  %: 73%
[1]; [8]
  No. of Plaques: 58 and 71
  No. of Plaques Average: 64.5
  %: 46%
[1]; [9]
  No. of Plaques: 11 and 10
  No. of Plaques Average: 10.5
  %: 7.5%
[1]; [10]
  No. of Plaques: None
  No. of Plaques Average: 0
  %: 0%
[1]; [11]
  No. of Plaques: 50 and 58
  No. of Plaques Average: 54
  %: 38%
[1]; [12]
  No. of Plaques: 50 and 61
  No. of Plaques Average: 55.5
  %: 39%
[1]; [13]
  No. of Plaques: 16 and 11
  No. of Plaques Average: 13.5
  %: 9.6%
[1]; [14]
  No. of Plaques: None
  No. of Plaques Average: 0
  %: 0%
CMV; [15]
  No. of Plaques: 27 and 20 and 24
  No. of Plaques Average: 24
  %: 9.9%
CMV; First trial, added before and after adsorption, 125 µg/ml
  No. of Plaques: No plaques
CMV; First trial, added before and after adsorption, 250 µg/ml
  No. of Plaques: totally blocked
CMV; Second trial, after adsorption only, 31 µg/m
  No. of Plaques: As virus control
CMV; Second trial, after adsorption only, 62 µg/ml
  No. of Plaques: As virus control
CMV; Second trial, after adsorption only, 125 µg/ml
  No. of Plaques: As virus control
CMV; Second trial, after adsorption only, 250 µg/ml
  No. of Plaques: None
CMV; Second trial, after adsorption only, 500 µg/ml
  No. of Plaques: None
CMV; [16]
  No. of Plaques: 35 and 40
  No. of Plaques Average: 32.5
  %: 17%
CMV; [17]
  No. of Plaques: 35 and 40
  No. of Plaques Average: 37.5
  %: 22%
CMV; Second trial, during and after adsorption, 125 µg/ml, estimate
  No. of Plaques: ~40 (estimate)
CMV; Second trial, during and after adsorption, 250 µg/ml
  No. of Plaques: None
CMV; Second trial, during and after adsorption, 500 µg/ml
  No. of Plaques: None
CMV; [18]
  No. of Plaques: As v.c.
  %: 100%
CMV; [19]
  No. of Plaques: As v.c
  %: 100%
CMV; [20]
  No. of Plaques: 120 125 131
  No. of Plaques Average: 125
  plaque size (remark in No. of Plaques cell): much smaller plaques
  %: 66%
CMV; [21]
  No. of Plaques: 119 125 128
  No. of Plaques Average: 124
  %: 65%
CMV; [22]
  No. of Plaques Average: 89
  plaque size (remark in No. of Plaques cell): smaller plaques
  %: 47%
CMV; [23]
  No. of Plaques: As v.c.
  %: 100%
CMV; [24]
  No. of Plaques: As v.c.
  No. of Plaques Average: 141
  %: 100%
CMV; [25]
  No. of Plaques: 148 140 135
  %: 74%
CMV; [26]
  No. of Plaques: 120 115 111
  No. of Plaques Average: 115
  plaque size (remark in No. of Plaques cell): much smaller plaques
  %: 61%
CMV; Third trial, during adsorption only, 62 µg/ml, MRC 5 cell line
  state of monolayer (printed in place of No. of Plaques): monolayer destroyed
CMV; [27]
  No. of Plaques: 128 125 121
  No. of Plaques Average: 125
  %: 66%
CMV; [28]
  No. of Plaques: 119 115 103
  No. of Plaques Average: 122
  %: 64%
CMV; [29]
  No. of Plaques Average: 76
  %: 40%
CMV; [30]
  No. of Plaques Average: 60
  %: 32%
CMV; [31]
  No. of Plaques Average: 48
  %: 25%
